Laboratory results: ChEMBL document CHEMBL3044957, “Synthesis and biological evaluation of some N 4-aryl-substituted 5-fluoroisatin-3-thiosemicarbazones” (Med Chem Res, 2013)
The source made the active and inactive calls. The calls are words filed in the database; no cut-off is given here.

Experiments:
Candida albicans = experiment: Growth inhibition of Candida albicans at 200 ug/ml after 7 days; format: functional; details: 168 h
Lemna aequinoctialis [1] = experiment: Phytotoxicity against Lemna aequinoctialis assessed as growth inhibition at 5 ug/ml after 7 days relative to control; format: functional; details: 168 h, read-out: GI
[2] = Toxicity against Artemia salina (brine shrimp) assessed as mortality after 24 hr; format: organism-based; details: in vivo, read-out: LD50
Lemna aequinoctialis [3] = experiment: Phytotoxicity against Lemna aequinoctialis assessed as growth inhibition at 500 ug/ml after 7 days relative to control; format: functional; details: 168 h, read-out: GI
Fusarium solani = experiment: Growth inhibition of Fusarium solani at 200 ug/ml after 7 days; format: functional; details: 168 h
Trichophyton longifusum = experiment: Growth inhibition of Trichophyton longifusum at 200 ug/ml after 7 days; format: functional; details: 168 h
Lemna aequinoctialis [4] = experiment: Phytotoxicity against Lemna aequinoctialis assessed as growth inhibition at 50 ug/ml after 7 days relative to control; format: functional; details: 168 h, read-out: GI
Aspergillus flavus = experiment: Growth inhibition of Aspergillus flavus at 200 ug/ml after 7 days; format: functional; details: 168 h
Urease = Urease (Canavalia ensiformis, UniProt P07374); experiment: Inhibition of Canavalia ensiformis (jack bean) urease assessed as inhibition of ammonia production after 15 min by indophenol method
Urease, sequence (P07374 whole entry): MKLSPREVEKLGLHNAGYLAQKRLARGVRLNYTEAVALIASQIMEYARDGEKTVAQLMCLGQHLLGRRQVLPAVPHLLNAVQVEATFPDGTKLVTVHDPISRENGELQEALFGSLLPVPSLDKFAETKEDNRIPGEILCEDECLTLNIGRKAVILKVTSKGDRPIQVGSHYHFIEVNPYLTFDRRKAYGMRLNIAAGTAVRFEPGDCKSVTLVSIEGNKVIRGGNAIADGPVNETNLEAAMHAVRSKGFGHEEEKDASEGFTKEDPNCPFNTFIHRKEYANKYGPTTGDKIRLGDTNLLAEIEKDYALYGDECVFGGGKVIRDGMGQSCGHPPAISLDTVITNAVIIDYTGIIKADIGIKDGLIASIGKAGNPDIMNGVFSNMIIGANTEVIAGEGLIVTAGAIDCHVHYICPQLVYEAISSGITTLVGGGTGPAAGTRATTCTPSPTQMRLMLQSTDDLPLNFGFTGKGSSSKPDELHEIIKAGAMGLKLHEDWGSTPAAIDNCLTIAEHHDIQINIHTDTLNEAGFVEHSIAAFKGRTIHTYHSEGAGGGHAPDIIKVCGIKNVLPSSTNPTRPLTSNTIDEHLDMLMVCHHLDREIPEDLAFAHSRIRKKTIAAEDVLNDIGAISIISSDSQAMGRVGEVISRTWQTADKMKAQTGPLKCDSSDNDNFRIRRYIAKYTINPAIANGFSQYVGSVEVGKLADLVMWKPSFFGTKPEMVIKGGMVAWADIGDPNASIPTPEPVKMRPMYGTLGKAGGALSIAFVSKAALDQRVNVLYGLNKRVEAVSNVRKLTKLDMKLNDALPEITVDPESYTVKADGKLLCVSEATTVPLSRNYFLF

Nakaseomyces glabratus = experiment: Growth inhibition of Candida glabrata at 200 ug/ml after 7 days; format: functional; details: 168 h
[5] = target: Urease (Canavalia ensiformis) (UniProt P07374); experiment: Inhibition of Canavalia ensiformis (jack bean) urease assessed as inhibition of ammonia production at 200 uM after 15 min by indophenol method
Urease (Canavalia ensiformis), sequence (P07374 whole entry, looked up): as the sequence (P07374 whole entry) above

Microsporum canis = experiment: Growth inhibition of Arthroderma otae at 200 ug/ml after 7 days; format: functional; details: 168 h
[6] = target: Urease (Canavalia ensiformis) (UniProt P07374); experiment: Inhibition of Canavalia ensiformis (jack bean) urease assessed as inhibition of ammonia production at 500 uM after 15 min by indophenol method
Lemna aequinoctialis [7] = experiment: Phytotoxicity against Lemna aequinoctialis assessed as growth inhibition at 0.015 g/ml after 7 days relative to control; format: functional
[8] = target: Urease (Canavalia ensiformis) (UniProt P07374); experiment: Inhibition of Canavalia ensiformis (jack bean) urease assessed as inhibition of ammonia production at 100 uM after 15 min by indophenol method
Homo sapiens = species on record: Homo sapiens; experiment: Inhibition of […] urease-mediated ammonia production at 100 uM after 15 min by indophenol method

O=C1Nc2ccc(F)cc2/C1=N/NC(=S)Nc1ccc(C(F)(F)F)cc1
inhibition at 200 µg/mL (Candida albicans): 0%
inhibition of growth at 5 µg/mL (Lemna aequinoctialis [1]): 10%
LC50 at 24 h [2]: 176 µM
inhibition of growth at 500 µg/mL (Lemna aequinoctialis [3]): 25%
inhibition at 200 µg/mL (Fusarium solani): 5%
inhibition at 200 µg/mL (Trichophyton longifusum): 0%
inhibition of growth at 50 µg/mL (Lemna aequinoctialis [4]): 15%
inhibition at 200 µg/mL (Aspergillus flavus): 20%
IC50 (Urease; read-out: IC50): 90.4 µM
inhibition at 200 µg/mL (Nakaseomyces glabratus): 0%
inhibition [5]: 53.4%
inhibition at 200 µg/mL (Microsporum canis): 25%

O=C1Nc2ccc(F)cc2/C1=N/NC(=S)Nc1cccc(C(F)(F)F)c1
inhibition at 200 µg/mL (Candida albicans): 0%
inhibition of growth at 5 µg/mL (Lemna aequinoctialis [1]): 0%
LC50 at 24 h [2]: > 52.4 µM
inhibition of growth at 500 µg/mL (Lemna aequinoctialis [3]): 30%
inhibition at 200 µg/mL (Fusarium solani): 25%
inhibition at 200 µg/mL (Trichophyton longifusum): 0%
inhibition of growth at 50 µg/mL (Lemna aequinoctialis [4]): 10%
inhibition at 200 µg/mL (Aspergillus flavus): 30%
IC50 (Urease; read-out: IC50): 59.9 µM
inhibition at 200 µg/mL (Nakaseomyces glabratus): 0%
inhibition [6]: 92.6%
inhibition at 200 µg/mL (Microsporum canis): 30%

C[n+]1ccc(-c2cc[n+](C)cc2)cc1
growth inhibition (GI) (Lemna aequinoctialis [7]): 100%

O=C1Nc2ccccc2/C1=N/NC(=S)Nc1cccc(F)c1
inhibition [8]: 57.3%
IC50 (Urease; read-out: IC50): 50.6 µM

O=C1Nc2ccccc2/C1=N/NC(=S)Nc1ccccc1F
inhibition [8]: 84.9%
IC50 (Urease; read-out: IC50): 20.6 µM

NC(N)=S
inhibition [6]: 99%

O=C1Nc2ccc(F)cc2/C1=N/NC(=S)Nc1ccc(F)cc1F
inhibition at 200 µg/mL (Candida albicans): 0%
inhibition of growth at 5 µg/mL (Lemna aequinoctialis [1]): 10%
LC50 at 24 h [2]: > 57.1 µM
inhibition of growth at 500 µg/mL (Lemna aequinoctialis [3]): 30%
inhibition at 200 µg/mL (Fusarium solani): 15%
inhibition at 200 µg/mL (Trichophyton longifusum): 0%
inhibition of growth at 50 µg/mL (Lemna aequinoctialis [4]): 20%
inhibition at 200 µg/mL (Aspergillus flavus): 40%
IC50 (Urease): Not Active
inhibition at 200 µg/mL (Nakaseomyces glabratus): 0%
inhibition [6]: 22.1%
inhibition at 200 µg/mL (Microsporum canis): 35%

O=C1Nc2ccc(F)cc2/C1=N/NC(=S)Nc1c(F)cccc1F
inhibition at 200 µg/mL (Candida albicans): 0%
inhibition of growth at 5 µg/mL (Lemna aequinoctialis [1]): 0%
LC50 at 24 h [2]: 115 µM
inhibition of growth at 500 µg/mL (Lemna aequinoctialis [3]): 30%
inhibition at 200 µg/mL (Fusarium solani): 0%
inhibition at 200 µg/mL (Trichophyton longifusum): 0%
inhibition of growth at 50 µg/mL (Lemna aequinoctialis [4]): 10%
inhibition at 200 µg/mL (Aspergillus flavus): 40%
IC50 (Urease; read-out: IC50): 47.3 µM
inhibition at 200 µg/mL (Nakaseomyces glabratus): 0%
inhibition [6]: 72.5%
inhibition at 200 µg/mL (Microsporum canis): 40%

O=C1Nc2ccc(F)cc2/C1=N/NC(=S)Nc1cc(F)cc(F)c1
inhibition at 200 µg/mL (Candida albicans): 0%
inhibition of growth at 5 µg/mL (Lemna aequinoctialis [1]): 0%
LC50 at 24 h [2]: 107 µM
inhibition of growth at 500 µg/mL (Lemna aequinoctialis [3]): 15%
inhibition at 200 µg/mL (Fusarium solani): 0%
inhibition at 200 µg/mL (Trichophyton longifusum): 0%
inhibition of growth at 50 µg/mL (Lemna aequinoctialis [4]): 10%
inhibition at 200 µg/mL (Aspergillus flavus): 0%
IC50 (Urease; read-out: IC50): 151 µM
inhibition at 200 µg/mL (Nakaseomyces glabratus): 0%
inhibition [6]: 80.2%
inhibition at 200 µg/mL (Microsporum canis): 40%

O=C1Nc2ccccc2/C1=N/NC(=S)Nc1ccc(C(F)(F)F)cc1
inhibition [8]: 44.6%
IC50 (Urease; read-out: IC50): 50.6 µM

O=C1Nc2ccc(F)cc2/C1=N/NC(=S)Nc1ccc(OC(F)(F)F)cc1
inhibition at 200 µg/mL (Candida albicans): 0%
inhibition of growth at 5 µg/mL (Lemna aequinoctialis [1]): 10%
LC50 at 24 h [2]: > 50.3 µM
inhibition of growth at 500 µg/mL (Lemna aequinoctialis [3]): 35%
inhibition at 200 µg/mL (Fusarium solani): 0%
inhibition at 200 µg/mL (Trichophyton longifusum): 0%
inhibition of growth at 50 µg/mL (Lemna aequinoctialis [4]): 20%
inhibition at 200 µg/mL (Aspergillus flavus): 10%
IC50 (Urease): Not Active
inhibition at 200 µg/mL (Nakaseomyces glabratus): 0%
inhibition [6]: 18.9%
inhibition at 200 µg/mL (Microsporum canis): 30%

O=C1Nc2ccccc2/C1=N/NC(=S)Nc1ccc(F)cc1F
inhibition [8]: 71.9%
IC50 (Urease; read-out: IC50): 47.6 µM

O=C1Nc2ccccc2/C1=N/NC(=S)Nc1cc(F)cc(F)c1
inhibition [8]: 38.8%

O=C1Nc2ccccc2/C1=N/NC(=S)Nc1ccc(OC(F)(F)F)cc1
inhibition [8]: 49.6%
IC50 (Urease; read-out: IC50): 20.6 µM

O=C1Nc2ccccc2/C1=N/NC(=S)Nc1cccc(C(F)(F)F)c1
inhibition [8]: 78.2%
IC50 (Urease; read-out: IC50): 20.6 µM

O=C1Nc2ccc(F)cc2/C1=N/NC(=S)Nc1cccc(F)c1
inhibition at 200 µg/mL (Candida albicans): 0%
inhibition of growth at 5 µg/mL (Lemna aequinoctialis [1]): 15%
LC50 at 24 h [2]: 121 µM
inhibition of growth at 500 µg/mL (Lemna aequinoctialis [3]): 30%
inhibition at 200 µg/mL (Fusarium solani): 15%
inhibition at 200 µg/mL (Trichophyton longifusum): 0%
inhibition of growth at 50 µg/mL (Lemna aequinoctialis [4]): 25%
inhibition at 200 µg/mL (Aspergillus flavus): 10%
IC50 (Urease; read-out: IC50): 45.3 µM
inhibition at 200 µg/mL (Nakaseomyces glabratus): 0%
inhibition [5]: 79.8%
inhibition at 200 µg/mL (Microsporum canis): 25%

O=C1Nc2ccccc2/C1=N/NC(=S)Nc1ccccc1
inhibition (Homo sapiens): inactive
inhibition of growth at 5 µg/mL (Lemna aequinoctialis [1]): 15%
LC50 at 24 h [2]: > 338 µM
inhibition of growth at 500 µg/mL (Lemna aequinoctialis [3]): 40%
inhibition of growth at 50 µg/mL (Lemna aequinoctialis [4]): 25%

O=C1Nc2ccccc2/C1=N/NC(=S)Nc1c(F)cccc1F
inhibition [8]: 92%
IC50 (Urease; read-out: IC50): 33.1 µM

O=C1Nc2ccc(F)cc2/C1=N/NC(=S)Nc1ccc(Br)cc1F
inhibition at 200 µg/mL (Candida albicans): 0%
inhibition of growth at 5 µg/mL (Lemna aequinoctialis [1]): 10%
LC50 at 24 h [2]: > 49.1 µM
inhibition of growth at 500 µg/mL (Lemna aequinoctialis [3]): 30%
inhibition at 200 µg/mL (Fusarium solani): 10%
inhibition at 200 µg/mL (Trichophyton longifusum): 0%
inhibition of growth at 50 µg/mL (Lemna aequinoctialis [4]): 25%
inhibition at 200 µg/mL (Aspergillus flavus): 0%
IC50 (Urease): Not Active
inhibition at 200 µg/mL (Nakaseomyces glabratus): 0%
inhibition [5]: 21.9%
inhibition at 200 µg/mL (Microsporum canis): 20%

O=C1Nc2ccc(F)cc2/C1=N/NC(=S)Nc1ccc(F)cc1
inhibition at 200 µg/mL (Candida albicans): 0%
inhibition of growth at 5 µg/mL (Lemna aequinoctialis [1]): 10%
LC50 at 24 h [2]: 97.9 µM
inhibition of growth at 500 µg/mL (Lemna aequinoctialis [3]): 35%
inhibition at 200 µg/mL (Fusarium solani): 10%
inhibition at 200 µg/mL (Trichophyton longifusum): 0%
inhibition of growth at 50 µg/mL (Lemna aequinoctialis [4]): 25%
inhibition at 200 µg/mL (Aspergillus flavus): 0%
IC50 (Urease): Not Active
inhibition at 200 µg/mL (Nakaseomyces glabratus): 0%
inhibition [6]: 45.6%
inhibition at 200 µg/mL (Microsporum canis): 15%

O=C1Nc2ccc(F)cc2/C1=N/NC(=S)Nc1ccccc1F
inhibition at 200 µg/mL (Candida albicans): 0%
inhibition of growth at 5 µg/mL (Lemna aequinoctialis [1]): 20%
LC50 at 24 h [2]: 279 µM
inhibition of growth at 500 µg/mL (Lemna aequinoctialis [3]): 35%
inhibition at 200 µg/mL (Fusarium solani): 20%
inhibition at 200 µg/mL (Trichophyton longifusum): 0%
inhibition of growth at 50 µg/mL (Lemna aequinoctialis [4]): 25%
inhibition at 200 µg/mL (Aspergillus flavus): 0%
IC50 (Urease; read-out: IC50): 37.7 µM
inhibition at 200 µg/mL (Nakaseomyces glabratus): 0%
inhibition [6]: 94.6%
inhibition at 200 µg/mL (Microsporum canis): 30%

O=C1Nc2ccc(F)cc2/C1=N/NC(=S)Nc1ccccc1
inhibition at 200 µg/mL (Candida albicans): 0%
inhibition of growth at 5 µg/mL (Lemna aequinoctialis [1]): 10%
LC50 at 24 h [2]: 68.9 µM
inhibition of growth at 500 µg/mL (Lemna aequinoctialis [3]): 70%
inhibition at 200 µg/mL (Fusarium solani): 0%
inhibition at 200 µg/mL (Trichophyton longifusum): 0%
inhibition of growth at 50 µg/mL (Lemna aequinoctialis [4]): 15%
inhibition at 200 µg/mL (Aspergillus flavus): 0%
IC50 (Urease; read-out: IC50): 343 µM
inhibition at 200 µg/mL (Nakaseomyces glabratus): 0%
inhibition [6]: 53%
inhibition at 200 µg/mL (Microsporum canis): 20%

O=C1Nc2ccc(F)cc2/C1=N/NC(=S)Nc1ccccc1C(F)(F)F
inhibition at 200 µg/mL (Candida albicans): 0%
inhibition of growth at 5 µg/mL (Lemna aequinoctialis [1]): 5%
LC50 at 24 h [2]: > 52.4 µM
inhibition of growth at 500 µg/mL (Lemna aequinoctialis [3]): 25%
inhibition at 200 µg/mL (Fusarium solani): 0%
inhibition at 200 µg/mL (Trichophyton longifusum): 0%
inhibition of growth at 50 µg/mL (Lemna aequinoctialis [4]): 10%
inhibition at 200 µg/mL (Aspergillus flavus): 15%
IC50 (Urease; read-out: IC50): 50.5 µM
inhibition at 200 µg/mL (Nakaseomyces glabratus): 0%
inhibition [5]: 77.3%
inhibition at 200 µg/mL (Microsporum canis): 20%

O=C1Nc2ccccc2/C1=N/NC(=S)Nc1ccccc1C(F)(F)F
inhibition [8]: 63.1%
IC50 (Urease; read-out: IC50): 33.1 µM
